Measured values from patent US20240325544A1, “CATIONIC LIPID FOR COVALENT MODIFICATION OF PEPTIDES” (PharmalN Corporation, priority 2023, published 2024).
Square brackets hold non-standard residues; d marks the D form. Peptide text beside a SMILES is read from it. * marks the point of attachment. C18 diacid = O=C(O)CCCCCCCCCCCCCCCCC(=O)*; Palmitoyl = CCCCCCCCCCCCCCCC(=O)*; Dab = NCC[C@H](N)C(=O)O; Dap = NC[C@H](N)C(=O)O; AEEA = NCCOCCOCC(=O)O; GABA = NCCCC(=O)O

How the values were obtained:
[1] = Clinically observable adverse effects of cationic alkyl moieties after subcutaneous bolus in rats (Table 1); assay type: in vivo, rat; settings: male, Sprague-Dawley, rat, in vivo, sc, tested at 3.0, 5.0 or 10 μmol/kg, lethargy is considered maximum tolerated bolus dose, read-out: Lethargy* in n = 3
Method: (§1) Drug administration and observation: Each rat received a subcutaneous injection of a cationic alkyl modifier (SEQ ID NO: 1-22; listed in Table 1 below) in a buffer of sterile water adjusted to a pH between 4.5-5, with an initial bolus dose of 5.0 μmol/kg and an injection volume of 1.0 mL/kg. The bolus dose level was adjusted based on observations, and animals were monitored closely for lethargy, ataxia, swelling, or discoloration during the first 4 hours post-injection and hourly thereafter. As used herein, “ataxia” means a clinical sign observed as poor muscle control that causes clumsy voluntary movements. It may cause difficulty with mobility, coordination, and eye movements. As used herein, “lethargy” means a clinical sign observed as inability or unwillingness to resume normal activity characterized by exploring and alertness. Lethargic rats are easily observed by displaying little to no activity and/or unwillingness to explore around, half closed eyes, and hunched posture. As used herein, “swelling” means a clinical sign observed as the enlargement or engorgement of body parts with blood or fluid and is associated with visible redness (discoloration). If no swelling occurred, dose level was increased to 10 μmol/kg; if swelling was present, bolus dose level was decreased to 3.0 μmol/kg. A wash-out period of 1 week was allowed between bolus doses, and animals were humanely euthanized through CO2 asphyxiation after final observation.

Sprague Dawley rats = experiment: as above; assay type: in vivo, rat; settings: tested at 3.0, 5.0 or 10 μmol/kg; for Ataxia** in n = 3: ataxia is bolus dose limiting toxicity; for Swelling and/or Discoloration in n = 3: dose at which sign was seen
Method: as §1

[2] = system: inflammatory cytokines (MCP1, IL-6, TNFα) in BALF; experiment: LPS ALI model: inflammatory cytokines in BALF by ELISA (Table 4); assay type: in vivo, mice; settings: LPS 0.05 mg/kg IT; SEQ 0.3 mg/kg SC, Sivelestat 150 mg/kg IP; 24 hours
Method: Animal care and treatment: Male C57BL/6J mice (6 weeks-old) were purchased from Kyudo (Saga, Japan) and maintained under a 12-hour light/12-hour dark cycle with free access to water and standard mouse diet (MF diet, Oriental Yeast Co., Ltd. Tokyo, Japan). Drug administration: Mice were administered LPS (0.05 mg/kg IT; Sigma-Aldrich) followed by treatment with various test articles, including Sivelestat (150 mg/kg; Nipro, Osaka, Japan), an inhibitor of human neutrophil elastase, injected IP as a positive control, and cationic alkyl modified CNPs (SEQ ID NO: 31, 29, and 30; 0.3 mg/kg (0.1 μmol/kg) SC). The test articles were administered immediately after LPS injection. Additionally, a normal control (NC) group without LPS administration and a Control group receiving only LPS without any test article were included. After 24 hours, the mice were euthanized under isoflurane anesthesia and BALF was harvested. Biochemical analysis: ALI and ARDS are often characterized by increased levels of inflammatory cytokines, including Macrophage Chemoattractant Protein-1 (MCP1), Interleukin-6 (IL-6), and […] (TNFα), in BALF. Decreases in their concentration can indicate the resolution of ALI/ARDS. Concentration of each cytokine (MCP1, IL-6, and TNFα) was measured using an ELISA kit (R&D SYSTEMS, Minneapolis M N). […] Statistical analysis was based on Dunnett's test performed by using GraphPad. (n=5, 8, 8, 8, and 8; NC, Control, PC, SEQ ID NO: 31, SEQ ID NO: 29). *** P<0.001, ** P<0.01, * P<0.05 vs each corresponding Control group.

Row | SMILES | MTD [1] [µmol/kg] | Ataxia** in n = 3 (Sprague Dawley rats) [µmol/kg] | Swelling and/or Discoloration in n = 3 (Sprague Dawley rats) [µmol/kg] | IL-6 in BALF [2] [% Of Control] | MCP1 in BALF [2] [% Of Control] | TNFα in BALF [2] [% Of Control]
1 | CCCCCCCCCCCCCCCC(=O)NCCOCCOCC(=O)NCCOCCOCC(=O)NCCOCCOCC(=O)N[C@@H](CCN)C(=O)N[C@@H](CCN)C(=O)N[C@@H](CCN)C(=O)O [SEQ ID NO: 9, CH3(CH2)14(C═O)-Aeea-Aeea-Aeea-Dab-Dab-Dab] ({Palmitoyl-AEEA-AEEA-AEEA}-[Dab]-[Dab]-[Dab]-OH; C-terminus assumed) | > 5 | >5 | ≥3 | – | – | –
2 | CCCCCCCCCCCCCCCC(=O)NCCOCCOCC(=O)NCCOCCOCC(=O)N[C@@H](CCCCN)C(=O)N[C@@H](CCCCN)C(=O)O [SEQ ID NO: 5, CH3(CH2)14(C═O)-Aeea-Aeea-KK] | ≥ 5 | ≥5 | – | – | – | –
3 | NC[C@H](NC(=O)[C@H](CN)NC(=O)COCCOCCNC(=O)COCCOCCNC(=O)COCCOCCNC(=O)CCCCCCCCCCCCCCCCC(=O)O)C(=O)O [SEQ ID NO: 20, (HOOC)(CH2)16(C═O)-Aeea-Aeea-Aeea-Dap-Dap] ({C18 diacid-AEEA-AEEA-AEEA}-[Dap]-[Dap]-OH; C-terminus assumed) | > 10 | >10 | >10 | – | – | –
4 | CC(C)(C)C(=O)Oc1ccc(S(=O)(=O)Nc2ccccc2C(=O)NCC(=O)O)cc1 [Sivelestat, reference compound] | – | – | – | 69 | 63 | 63
5 | CCCCCCCCCCCCCCCC(=O)NCCOCCOCC(=O)NCCOCCOCC(=O)NCCOCCOCC(=O)N[C@@H](CCN)C(=O)N[C@@H](CCN)C(=O)O [SEQ ID NO: 10, CH3(CH2)14(C═O)-Aeea-Aeea-Aeea-Dab-Dab] ({Palmitoyl-AEEA-AEEA-AEEA}-[Dab]-[Dab]-OH; C-terminus assumed) | > 10 | >10 | ≥10 | – | – | –
6 | CCCCCCCCCCCCCCCC(=O)NCCOCCOCC(=O)NCCOCCOCC(=O)NCCOCCOCC(=O)N[C@@H](CCN)C(=O)N[C@@H](CCN)C(=O)N[C@@H](CCN)C(=O)N[C@@H](CCN)C(=O)O [SEQ ID NO: 8, CH3(CH2)14(C═O)-Aeea-Aeea-Aeea-Dab-Dab-Dab-Dab] ({Palmitoyl-AEEA-AEEA-AEEA}-[Dab][Dab][Dab][Dab]-OH; C-terminus assumed) | ≥ 3 | >5 | ≥3 | – | – | –
7 | CCCCCCCCCCCCCCCC(=O)NCCCC(=O)NCCCC(=O)N[C@@H](CCN)C(=O)N[C@@H](CCN)C(=O)O [SEQ ID NO: 11, CH3(CH2)14(C═O)-γAbu-γAbu-Dab-Dab] ({Palmitoyl-GABA-GABA}-[Dab]-[Dab]-OH; C-terminus assumed) | > 10 | >10 | >10 | – | – | –
8 | CCCCCCCCCCCCCCCC(=O)NCCOCCOCC(=O)NCCOCCOCC(=O)N[C@@H](CN)C(=O)N[C@@H](CCN)C(=O)O [SEQ ID NO: 13, CH3(CH2)14(C═O)-Aeea-Aeea-Dap-Dab] ({Palmitoyl-AEEA-AEEA}-[Dap]-[Dab]-OH; C-terminus assumed) | > 10 | >10 | >10 | – | – | –
9 | CCCCCCCCCCCCCCCC(=O)NCCOCCOCC(=O)NCCOCCOCC(=O)N[C@@H](CCCCN)C(=O)N[C@@H](CCCCN)C(=O)N[C@@H](CCCCN)C(=O)N[C@@H](CCCCN)C(=O)O [SEQ ID NO: 4, CH3(CH2)14(C═O)-Aeea-Aeea-KKKK] ({Palmitoyl-AEEA-AEEA}-KKKK-OH; C-terminus assumed) | ≥ 3 | ≥3 | ≥3 | – | – | –
10 | CCCCCCCCCCCCCCCC(=O)NCCOCCOCC(=O)NCCOCCOCC(=O)NCCOCCOCC(=O)N[C@@H](CCN)C(=O)N[C@@H](CN)C(=O)O [SEQ ID NO: 17, CH3(CH2)14(C═O)-Aeea-Aeea-Aeea-Dab-Dap] ({Palmitoyl-AEEA-AEEA-AEEA}-[Dab]-[Dap]-OH; C-terminus assumed) | > 10 | >10 | >10 | – | – | –
11 | CCCCCCCCCCCCCCCC(=O)NCCOCCOCC(=O)NCCOCCOCC(=O)NCCOCCOCC(=O)N[C@@H](CN)C(=O)N[C@@H](CN)C(=O)N[C@@H](CN)C(=O)N[C@@H](CN)C(=O)O [SEQ ID NO: 22, CH3(CH2)14(C═O)-Aeea-Aeea-Aeea-Dap-Dap-Dap-Dap] ({Palmitoyl-AEEA-AEEA-AEEA}-[Dap][Dap][Dap][Dap]-OH; C-terminus assumed) | > 10 | >10 | >10 | – | – | –
12 | NCC[C@H](NC(=O)[C@H](CCN)NC(=O)COCCOCCNC(=O)COCCOCCNC(=O)COCCOCCNC(=O)CCCCCCCCCCCCCCCCC(=O)O)C(=O)O [SEQ ID NO: 18, (HOOC)(CH2)16(C═O)-Aeea-Aeea-Aeea-Dab-Dab] ({C18 diacid-AEEA-AEEA-AEEA}-[Dab]-[Dab]-OH; C-terminus assumed) | > 10 | >10 | >10 | – | – | –
13 | CCCCCCCCCCCCCCCC(=O)NCCOCCOCC(=O)NCCOCCOCC(=O)NCCOCCOCC(=O)N[C@@H](CN)C(=O)N[C@@H](CN)C(=O)N[C@@H](CN)C(=O)O [SEQ ID NO: 19, CH3(CH2)14(C═O)-Aeea-Aeea-Aeea-Dap-Dap-Dap] ({Palmitoyl-AEEA-AEEA-AEEA}-[Dap]-[Dap]-[Dap]-OH; C-terminus assumed) | > 10 | >10 | >10 | – | – | –
